The target of one assay is TYK2 (Homo sapiens (Human), UniProt P29597). Briefly: Tyk2 radioactive kinase assay. The class given is biochemical. Conditions: ATP 10 μM. How it is done: (§1) Peptide substrate, [KKSRGDYMTMQIG], (20 μM) is prepared in reaction buffer (20 mM Hepes pH 7.5, 10 mM MgCl2, 1 mM EGTA, 0.02% Brij35, 0.02 mg/mL BSA, 0.1 mM […], 2 mM DTT, 1% DMSO. TYK2 (Invitrogen) kinase is added, followed by compounds in DMSO. ^33PATP is added to initiate the reaction with ATP at 10 μM. Kinase reaction is incubated for 120 min at room temp and reactions are spotted onto P81 ion exchange paper (Whatman #3698-915), and then washed extensively in 0.75% phosphoric acid, prior to reading the radioactivity counts. For JAK2 (Invitrogen) kinase assay the peptide substrate poly[Glu:Tyr] (4:1), 0.2 mg/ml is used, in the reaction carried out the same as for TYK2.

The next assay addresses JAK2 (Homo sapiens (Human), UniProt O60674). Briefly: JAK2 radioactive kinase assay. The class given is biochemical. To be noted: ATP 10 μM. Here is the method: as §1

This is an account of results in patent publication US10781204B2, “TYK2 inhibitors and uses thereof” (Nimbus Lakshmi, Inc., priority 2015, dated 2020).

Molecules are shown by their SMILES.

Sequence of TYK2 (P29597 whole entry): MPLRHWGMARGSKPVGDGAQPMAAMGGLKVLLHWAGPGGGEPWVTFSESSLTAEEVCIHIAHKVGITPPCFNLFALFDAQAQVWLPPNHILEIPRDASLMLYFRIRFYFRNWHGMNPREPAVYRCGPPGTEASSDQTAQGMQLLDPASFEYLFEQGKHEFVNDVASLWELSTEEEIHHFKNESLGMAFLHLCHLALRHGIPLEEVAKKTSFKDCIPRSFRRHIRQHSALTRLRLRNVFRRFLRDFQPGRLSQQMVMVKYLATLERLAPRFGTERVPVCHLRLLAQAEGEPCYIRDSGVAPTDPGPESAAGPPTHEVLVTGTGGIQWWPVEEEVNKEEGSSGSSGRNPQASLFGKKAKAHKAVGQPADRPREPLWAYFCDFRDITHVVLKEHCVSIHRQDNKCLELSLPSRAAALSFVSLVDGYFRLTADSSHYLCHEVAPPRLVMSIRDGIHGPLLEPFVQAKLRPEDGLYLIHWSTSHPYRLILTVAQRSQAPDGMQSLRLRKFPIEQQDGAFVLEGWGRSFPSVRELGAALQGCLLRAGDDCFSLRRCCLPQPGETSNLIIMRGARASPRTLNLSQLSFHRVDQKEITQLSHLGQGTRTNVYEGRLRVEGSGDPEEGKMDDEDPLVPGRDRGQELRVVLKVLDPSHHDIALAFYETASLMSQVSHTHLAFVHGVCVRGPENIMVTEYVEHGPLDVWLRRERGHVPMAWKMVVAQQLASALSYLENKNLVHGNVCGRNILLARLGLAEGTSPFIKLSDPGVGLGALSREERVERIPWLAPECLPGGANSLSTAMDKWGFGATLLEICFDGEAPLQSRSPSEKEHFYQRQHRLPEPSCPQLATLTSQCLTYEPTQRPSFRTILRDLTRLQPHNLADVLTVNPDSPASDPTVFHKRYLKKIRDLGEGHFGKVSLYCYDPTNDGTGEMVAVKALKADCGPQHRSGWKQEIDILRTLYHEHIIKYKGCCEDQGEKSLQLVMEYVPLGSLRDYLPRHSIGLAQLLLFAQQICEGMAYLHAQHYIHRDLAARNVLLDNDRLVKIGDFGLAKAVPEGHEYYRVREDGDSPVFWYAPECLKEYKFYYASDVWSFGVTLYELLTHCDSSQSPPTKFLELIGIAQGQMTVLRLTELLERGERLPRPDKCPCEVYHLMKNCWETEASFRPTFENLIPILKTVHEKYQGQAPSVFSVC
Sequence of JAK2 (O60674 whole entry): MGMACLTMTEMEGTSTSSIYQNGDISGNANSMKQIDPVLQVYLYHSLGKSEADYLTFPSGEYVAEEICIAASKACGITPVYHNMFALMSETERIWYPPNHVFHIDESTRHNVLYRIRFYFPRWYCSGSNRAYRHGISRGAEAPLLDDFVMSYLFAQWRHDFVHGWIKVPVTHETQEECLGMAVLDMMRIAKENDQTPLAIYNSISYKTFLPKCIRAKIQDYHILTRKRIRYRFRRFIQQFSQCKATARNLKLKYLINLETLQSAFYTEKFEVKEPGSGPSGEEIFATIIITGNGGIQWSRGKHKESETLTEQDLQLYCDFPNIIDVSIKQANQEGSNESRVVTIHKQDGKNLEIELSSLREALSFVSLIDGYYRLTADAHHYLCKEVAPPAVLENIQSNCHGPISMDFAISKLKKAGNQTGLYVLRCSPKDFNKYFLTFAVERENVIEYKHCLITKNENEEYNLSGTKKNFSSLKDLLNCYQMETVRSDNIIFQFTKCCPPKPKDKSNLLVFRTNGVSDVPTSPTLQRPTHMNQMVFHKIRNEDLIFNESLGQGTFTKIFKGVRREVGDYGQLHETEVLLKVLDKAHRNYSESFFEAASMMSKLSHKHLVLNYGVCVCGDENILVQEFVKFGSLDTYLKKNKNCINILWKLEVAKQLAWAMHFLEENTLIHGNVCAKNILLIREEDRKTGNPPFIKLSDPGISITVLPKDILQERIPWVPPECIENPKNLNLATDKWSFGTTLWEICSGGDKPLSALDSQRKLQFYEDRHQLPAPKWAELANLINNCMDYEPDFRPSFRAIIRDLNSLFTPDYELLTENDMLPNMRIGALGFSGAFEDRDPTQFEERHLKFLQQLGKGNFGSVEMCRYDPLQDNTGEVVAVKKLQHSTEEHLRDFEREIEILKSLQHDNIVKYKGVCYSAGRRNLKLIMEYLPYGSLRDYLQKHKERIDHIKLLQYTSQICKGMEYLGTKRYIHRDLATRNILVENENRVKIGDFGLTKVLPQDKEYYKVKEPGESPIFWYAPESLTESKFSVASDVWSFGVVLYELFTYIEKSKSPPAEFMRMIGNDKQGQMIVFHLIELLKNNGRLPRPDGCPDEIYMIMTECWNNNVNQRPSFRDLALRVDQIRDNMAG

As a reminder, the Ki is a measure of affinity in units of concentration, obtained from inhibition or displacement. As for `O=C1NCc2nc(-c3c(F)cccc3F)cc(-n3ccc(N4CCOCC4)n3)c21` [I-1, 2-(2,6-difluorophenyl)-4-(3-morpholino-1H-pyrazol-1-yl)-6,7-dihydro-5H-pyrrolo[3,4-b]pyridin-5-one], the Ki was 0.1 to 10 nM at TYK2 and 100 to 1000 nM at JAK2.

For `CN1CCN(c2ccn(-c3cc(-c4c(F)cccc4F)nc4c3C(=O)NC4)n2)CC1` [I-5, 2-(2,6-difluorophenyl)-4-(3-(4-methylpiperazin-1-yl)-1H-pyrazol-1-yl)-6,7-dihydro-5H-pyrrolo[3,4-b]pyridin-5-one], the Ki at TYK2 was 0.1 to 10 nM; on JAK2, 100 to 1000 nM.

For the compound `CCNC(=O)Cc1ccn(-c2cc(-c3c(F)cccc3C#N)nc3c2C(=O)NC3)n1` [I-7, 2-(1-(2-(2-cyano-6-fluorophenyl)-5-oxo-6,7-dihydro-5H-pyrro-lo[3,4-b]pyridin-4-yl)-1H-pyrazol-3-yl)-N-ethylacetamide], the Ki was in the range of 0.1 to 10 nM at TYK2 and 100 to 1000 nM at JAK2.

`O=C1NCc2nc(-c3c(F)cccc3F)cc(-n3cccn3)c21` [I-58, 2-(2,6-difluorophenyl)-4-(1H-pyrazol-1-yl)-6,7-dihydro-5H-pyrrolo[3,4-b]pyridin-5-one]: the Ki lay in the range of 10 to 100 nM on TYK2 and 100 to 1000 nM on JAK2.

In the case of `N#Cc1cccc(F)c1-c1cc(-n2ccc(NCCO)n2)c2c(n1)CNC2=O` [I-64, 3-fluoro-2-(4-(3-((2-hydroxyethyl)amino)-1H-pyrazol-1-yl)-5-oxo-6,7-dihydro-5H-pyrrolo[3,4-b]pyridin-2-yl)benzonitrile], the inhibition constant Ki was in the range of 0.1 to 10 nM at TYK2 and 10 to 100 nM at JAK2.

On to `N#Cc1cccc(F)c1-c1cc(-n2ccc(N3CCC(N4CCCC4)CC3)n2)c2c(n1)CNC2=O` [I-66, 3-fluoro-2-(5-oxo-4-(3-(4-(pyrrolidin-1-yl)piperidin-1-yl)-1H-pyrazol-1-yl)-6,7-dihydro-5H-pyrrolo[3,4-b]pyridin-2-yl)benzonitrile], for which the values for the inhibition constant (Ki) on TYK2 and at JAK2 were 0.1 to 10 nM and 10 to 100 nM, respectively.

For `CN(C)[C@H]1CC[C@H](Nc2ccn(-c3cc(-c4c(F)cccc4C#N)nc4c3C(=O)NC4)n2)CC1` [I-67, 2-(4-(3-(((1r,4r)-4-(dimethylamino)cyclohexyl)amino)-1H-pyrazol-1-yl)-5-oxo-6,7-dihydro-5H-pyrrolo[3,4-b]pyridin-2-yl)-3-fluorobenzonitrile], the inhibition constant Ki at TYK2 fell in the range of 0.1 to 10 nM; at JAK2 it was 10 to 100 nM.

Regarding `CS(=O)(=O)c1ccn(-c2cc(-c3c(F)cccc3C#N)nc3c2C(=O)NC3)n1` [I-81, 3-fluoro-2-(4-(3-(methylsulfonyl)-1H-pyrazol-1-yl)-5-oxo-6,7-dihydro-5H-pyrrolo[3,4-b]pyridin-2-yl)benzonitrile], the Ki at TYK2 was 10 to 100 nM; at JAK2 it was at least 1000 nM.

Take `COCCOC1CN(c2ccn(-c3cc(-c4c(F)cccc4C#N)nc4c3C(=O)NC4)n2)C1` [I-82, 3-fluoro-2-(4-(3-(3-(2-methoxyethoxy)azetidin-1-yl)-1H-pyrazol-1-yl)-5-oxo-6,7-dihydro-5H-pyrrolo[3,4-b]pyridin-2-yl)benzonitrile]: the Ki on TYK2 and on JAK2 was at least 1000 nM each time.

Regarding `CC1(O)CCN(c2ccn(-c3cc(-c4c(F)cccc4C#N)nc4c3C(=O)NC4)n2)C1` (stereo not drawn) [I-87, 3-fluoro-2-(4-(3-(3-hydroxy-3-methylpyrrolidin-1-yl)-1H-pyrazol-1-yl)-5-oxo-6,7-dihydro-5H-pyrrolo[3,4-b]pyridin-2-yl)benzonitrile], the Ki on TYK2 lay in the range of 0.1 to 10 nM; at JAK2, 10 to 100 nM.

In the case of `N#Cc1cccc(F)c1-c1cc(-n2ccc(CCO)n2)c2c(n1)CNC2=O` [I-94, 3-fluoro-2-(4-(3-(2-hydroxyethyl)-1H-pyrazol-1-yl)-5-oxo-6,7-dihydro-5H-pyrrolo[3,4-b]pyridin-2-yl)benzonitrile], the Ki was 10 to 100 nM at TYK2 and 100 to 1000 nM at JAK2.

`CN1CC(S(=O)(=O)N2CCN(c3ccn(-c4cc(-c5c(F)cccc5C#N)nc5c4C(=O)NC5)n3)CC2)C1` [I-99, 3-fluoro-2-(4-(3-(4-((1-methylazetidin-3-yl)sulfonyl)piperazin-1-yl)-1H-pyrazol-1-yl)-5-oxo-6,7-dihydro-5H-pyrrolo[3,4-b]pyridin-2-yl)benzonitrile]: the Ki on TYK2 and at JAK2 was at least 1000 nM each time.

On to `N#Cc1cccc(F)c1-c1cc(-n2ccc(CC(=O)O)n2)c2c(n1)CNC2=O` [I-102, 2-(1-(2-(2-cyano-6-fluorophenyl)-5-oxo-6,7-dihydro-5H-pyrrolo[3,4-b]pyridin-4-yl)-1H-pyrazol-3-yl)acetic acid], for which the Ki at TYK2 is 10 to 100 nM; at JAK2, at least 1000 nM.

For the compound `C[C@@H]1CC(O)C[C@@H](C)N1c1ccn(-c2cc(-c3c(F)cccc3C#N)nc3c2C(=O)NC3)n1` (stereo partly drawn) [I-106, 3-fluoro-2-(4-(3-((2R,6R)-4-hydroxy-2,6-dimethylpiperidin-1-yl)-1H-pyrazol-1-yl)-5-oxo-6,7-dihydro-5H-pyrrolo[3,4-b]pyridin-2-yl)benzonitrile], the inhibition constant (Ki) at TYK2 was in the range of 10 to 100 nM; on JAK2, 100 to 1000 nM.

With `CC1(O)CN(c2ccn(-c3cc(-c4c(F)cccc4C#N)nc4c3C(=O)NC4)n2)CC[C@H]1O` (stereo partly drawn) [I-108, 2-(4-(3-((4R)-3,4-dihydroxy-3-methylpiperidin-1-yl)-1H-pyrazol-1-yl)-5-oxo-6,7-dihydro-5H-pyrrolo[3,4-b]pyridin-2-yl)-3-fluorobenzonitrile], the Ki at TYK2 and on JAK2 was 0.1 to 10 nM in each case.

In the case of `N#Cc1cccc(F)c1-c1cc(-n2ccc(N3CCC[C@H](O)[C@H](O)C3)n2)c2c(n1)CNC2=O` [I-115, 2-(4-(3-((3R,4S)-3,4-dihydroxyazepan-1-yl)-1H-pyrazol-1-yl)-5-oxo-6,7-dihydro-5H-pyrrolo[3,4-b]pyridin-2-yl)-3-fluorobenzonitrile], the Ki on TYK2 is 0.1 to 10 nM; on JAK2 it was 10 to 100 nM.

As for `N#Cc1cccc(F)c1-c1cc(-n2ccc(N3CCC(C#N)C3)n2)c2c(n1)CNC2=O` (stereo not drawn) [I-116, 1-(1-(2-(2-cyano-6-fluorophenyl)-5-oxo-6,7-dihydro-5H-pyrrolo[3,4-b]pyridin-4-yl)-1H-pyrazol-3-yl)pyrrolidine-3-carbonitrile], the Ki at TYK2 and on JAK2 was 0.1 to 10 nM throughout.

Regarding `CN(C)[C@H]1CC[C@H](Oc2ccn(-c3cc(-c4c(F)cccc4C#N)nc4c3C(=O)NC4)n2)CC1` [I-117, 2-(4-(3-(((1r,4r)-4-(dimethylamino)cyclohexyl)oxy)-1H-pyrazol-1-yl)-5-oxo-6,7-dihydro-5H-pyrrolo[3,4-b]pyridin-2-yl)-3-fluorobenzonitrile], the figures for the Ki at TYK2 and at JAK2 were 0.1 to 10 nM and 10 to 100 nM, respectively.

`N#Cc1cccc(F)c1-c1cc(-n2ccc(N3CCOCC3=O)n2)c2c(n1)CNC2=O` [I-138, 3-fluoro-2-(5-oxo-4-(3-(3-oxomorpholino)-1H-pyrazol-1-yl)-6,7-dihydro-5H-pyrrolo[3,4-b]pyridin-2-yl)benzonitrile]: the Ki at TYK2 fell in the range of 0.1 to 10 nM; on JAK2 it was 100 to 1000 nM.

Regarding `CO[C@H]1CN(c2ccn(-c3cc(-c4c(F)cccc4C#N)nc4c3C(=O)NC4)n2)C[C@H]1O` [I-143, 3-fluoro-2-(4-(3-((3R,4S)-3-hydroxy-4-methoxypyrrolidin-1-yl)-1H-pyrazol-1-yl)-5-oxo-6,7-dihydro-5H-pyrrolo[3,4-b]pyridin-2-yl)benzonitrile], the Ki on TYK2 and on JAK2 was 0.1 to 10 nM in each case.

With `C[C@]1(O)CN(c2ccn(-c3cc(-c4c(F)cccc4C#N)nc4c3C(=O)NC4)n2)C[C@@](C)(O)C1` [I-144, 2-(4-(3-((3S,5R)-3,5-dihydroxy-3,5-dimethylpiperidin-1-yl)-1H-pyrazol-1-yl)-5-oxo-6,7-dihydro-5H-pyrrolo[3,4-b]pyridin-2-yl)-3-fluorobenzonitrile], the Ki on TYK2 lay in the range of 10 to 100 nM; on JAK2 it was 100 to 1000 nM.

Take `N#Cc1cccc(F)c1-c1cc(-n2ccc(N3CCC4(CCNC4=O)C3)n2)c2c(n1)CNC2=O` (stereo not drawn) [I-146, 3-fluoro-2-(5-oxo-4-(3-(6-oxo-2,7-diazaspiro[4.4]nonan-2-yl)-1H-pyrazol-1-yl)-6,7-dihydro-5H-pyrrolo[3,4-b]pyridin-2-yl)benzonitrile]: the results for the Ki at TYK2 and at JAK2 were 0.1 to 10 nM and 10 to 100 nM, respectively.

For the compound `N#Cc1cccc(F)c1-c1cc(-n2ccc(N3CC[C@H](F)[C@H](O)C3)n2)c2c(n1)CNC2=O` [I-174, 3-fluoro-2-(4-(3-((3R,4S)-4-fluoro-3-hydroxypiperidin-1-yl)-1H-pyrazol-1-yl)-5-oxo-6,7-dihydro-5H-pyrrolo[3,4-b]pyridin-2-yl)benzonitrile], the Ki fell in the range of 0.1 to 10 nM at TYK2 and 10 to 100 nM at JAK2.

As for `[2H]C([2H])([2H])O[C@H]1CN(c2ccn(-c3cc(-c4c(F)cccc4C#N)nc4c3C(=O)NC4)n2)C[C@H]1O` [I-199, 3-fluoro-2-(4-(3-((3R,4S)-3-hydroxy-4-(methoxy-d3)pyrrolidin-1-yl)-1H-pyrazol-1-yl)-5-oxo-6,7-dihydro-5H-pyrrolo[3,4-b]pyridin-2-yl)benzonitrile], the Ki lay in the range of 0.1 to 10 nM on TYK2 and 10 to 100 nM on JAK2.
